Measurements taken from patent publication US4200628A, “Novel aminoglycoside derivatives” (Shionogi & Co., Ltd., priority 1977, dated 1980).
≈ marks a conversion by molar mass, not a printed value. Like-named read-outs stand apart in the source and are kept apart here.

Experiments:
Test in all cases: MIC, antimicrobial activity
[1] = system: Pseudomonas aeruginosa Ps-24; settings: for Minimum Inhibitory Concentration (MIC): Pseudomonas aeruginosa Ps-24; for MIC: Pseudomonas aeruginosa
[2] = system: Proteus rettgeri Ret 40; settings: for Minimum Inhibitory Concentration (MIC): Proteus rettgeri Ret 40; for MIC: Providencia rettgeri, RET40, read-out: Minimum Inhibitory Concentration (MIC), Proteus rettgeri Ret 40
[3] = system: Escherichia coli NIHJ JC-2; settings: for Minimum Inhibitory Concentration (MIC): Escherichia coli NIHJ JC-2; for MIC: Escherichia coli
[4] = system: Staphylococcus aureus FDAJC; settings: for MIC: Staphylococcus aureus, read-out: Minimum Inhibitory Concentration (MIC), Staphylococcus aureus FDAJC; for Minimum Inhibitory Concentration (MIC): Staphylococcus aureus FDAJC
[5] = system: Proteus mirabilis TB-617; type: cell-based; settings: for Minimum Inhibitory Concentration (MIC): Proteus mirabilis TB-617; for MIC: Proteus mirabilis, TB617, Proteus mirabilis TB-617, read-out: Minimum Inhibitory Concentration (MIC)
[6] = system: Enterobacter cloacae TB-718; type: cell-based; settings: for Minimum Inhibitory Concentration (MIC): Enterobacter cloacae TB-718; for MIC: Enterobacter cloacae, TB718, Enterobacter cloacae TB-718, read-out: Minimum Inhibitory Concentration (MIC)
[7] = system: Klebsiella pneumoniae Kl-38; settings: for Minimum Inhibitory Concentration (MIC): Klebsiella pneumoniae Kl-38; for MIC: Klebsiella pneumoniae
[8] = system: Serratia marcescens ATCC 13880; settings: for MIC: Serratia marcescens
[9] = system: Proteus inconstans In-27; type: cell-based; settings: for MIC: Providencia alcalifaciens, IN27, read-out: Minimum Inhibitory Concentration (MIC), Proteus inconstans In-27, tobramycin resistant strain; for Minimum Inhibitory Concentration (MIC): Proteus inconstans In-27, tobramycin resistant strain
[10] = system: Pseudomonas aeruginosa PP-6; settings: for MIC: Pseudomonas aeruginosa; for Minimum Inhibitory Concentration (MIC): Pseudomonas aeruginosa PP-6, tobramycin resistant strain
[11] = system: Escherichia coli W-677/JR-762; settings: for Minimum Inhibitory Concentration (MIC): Escherichia coli W-677/JR-762, tobramycin resistant strain; for MIC: Escherichia coli, W677/JR762, read-out: Minimum Inhibitory Concentration (MIC), Escherichia coli W-677/JR-762, tobramycin resistant strain
[12] = ATCC13880, read-out: Minimum Inhibitory Concentration (MIC)
[13] = PP6, read-out: Minimum Inhibitory Concentration (MIC), Pseudomonas aeruginosa PP-6, tobramycin resistant strain
[14] = ATCC13880, read-out: Minimum Inhibitory Concentration (MIC), Serratia marcescens ATCC 13880
[15] = PS24, read-out: Minimum Inhibitory Concentration (MIC), Pseudomonas aeruginosa Ps-24
[16] = NIHJJC2, read-out: Minimum Inhibitory Concentration (MIC), Escherichia coli NIHJ JC-2
[17] = KL38, read-out: Minimum Inhibitory Concentration (MIC), Klebsiella pneumoniae Kl-38
[18] = PP6, read-out: Minimum Inhibitory Concentration (MIC)
[19] = NIHJJC2, read-out: Minimum Inhibitory Concentration (MIC)
[20] = KL38, read-out: Minimum Inhibitory Concentration (MIC)

SMILES	Minimum Inhibitory Concentration (MIC) [1]	Minimum Inhibitory Concentration (MIC) [2]	Minimum Inhibitory Concentration (MIC) [3]	MIC [4]	Minimum Inhibitory Concentration (MIC) [5]	Minimum Inhibitory Concentration (MIC) [6]	Minimum Inhibitory Concentration (MIC) [7]	MIC [8, 12]	MIC [9]	MIC [10, 13]	Minimum Inhibitory Concentration (MIC) [11]	Minimum Inhibitory Concentration (MIC) [4]	MIC [8, 14]	MIC [1, 15]	MIC [2]	MIC [3, 16]	MIC [5]	MIC [6]	MIC [7, 17]	MIC [11]	also measured
NC[C@H]1O[C@H](O[C@H]2[C@H](O)[C@@H](O[C@H]3O[C@H](CO)[C@@H](O)[C@H](N)[C@H]3O)[C@H](NC(=O)C(O)C3CNCCN3)C[C@@H]2N)[C@H](N)C[C@@H]1O (single isomer, unassigned) [(8), 1-N-[2-hydroxy-2-(piperazin-2-yl)acetyl]tobramycin]	0.8 µg/mL	0.8 µg/mL	1.6 µg/mL	0.1 µg/mL (≈ 0.164 µM)	1.6 µg/mL	0.8 µg/mL	0.8 µg/mL	25 µg/mL (≈ 41 µM)	100 µg/mL (≈ 164 µM)	12.5 µg/mL (≈ 20.5 µM)	3.1 µg/mL	–	–	–	–	–	–	–	–	–	–
NC[C@H]1O[C@H](O[C@H]2[C@H](O)[C@@H](O[C@H]3O[C@H](CO)[C@@H](O)[C@H](N)[C@H]3O)[C@H](NC(=O)C(O)C3CNCCN3)C[C@@H]2N)[C@H](N)C[C@@H]1O (single isomer, unassigned) [(9), 1-N-[2-hydroxy-2-(piperazin-2-yl)acetyl]tobramycin]	3.1 µg/mL	3.1 µg/mL	25.0 µg/mL	–	6.2 µg/mL	12.5 µg/mL	6.2 µg/mL	–	–	–	25.0 µg/mL	0.1 µg/mL	100 µg/mL (≈ 164 µM)	–	–	–	–	–	–	–	Minimum Inhibitory Concentration (MIC) [9]: > 100.0 µg/mL; Minimum Inhibitory Concentration (MIC) [10]: 25.0 µg/mL
NC[C@H]1O[C@H](O[C@H]2[C@H](O)[C@@H](O[C@H]3O[C@H](CO)[C@@H](O)[C@H](N)[C@H]3O)[C@H](NC(=O)C(O)C3CCNC3)C[C@@H]2N)[C@H](N)C[C@@H]1O (stereo partly shown) [(1), 1-N-[2-hydroxy-2-(pyrrolidin-3-yl)acetyl]tobramycin]	–	–	–	0.1 µg/mL (≈ 0.168 µM)	–	–	–	–	100 µg/mL (≈ 168 µM)	–	–	–	12.5 µg/mL (≈ 21 µM)	1.6 µg/mL (≈ 2.69 µM)	0.8 µg/mL (≈ 1.35 µM)	1.6 µg/mL (≈ 2.69 µM)	3.1 µg/mL (≈ 5.21 µM)	1.6 µg/mL (≈ 2.69 µM)	0.8 µg/mL (≈ 1.35 µM)	6.2 µg/mL (≈ 10.4 µM)	MIC [10, 18]: 3.1 µg/mL (≈ 5.21 µM)
NC[C@H]1O[C@H](O[C@H]2[C@H](O)[C@@H](O[C@H]3O[C@H](CO)[C@@H](O)[C@H](N)[C@H]3O)[C@H](NC(=O)C(O)C3CCN3)C[C@@H]2N)[C@H](N)C[C@@H]1O (stereo partly shown) [(2), 1-N-[2-hydroxy-2-(azetidin-2-yl)acetyl]tobramycin]	–	–	–	0.1 µg/mL (≈ 0.172 µM)	–	–	–	50 µg/mL (≈ 86.1 µM)	> 100 µg/mL	12.5 µg/mL (≈ 21.5 µM)	–	–	–	1.6 µg/mL (≈ 2.76 µM)	0.8 µg/mL (≈ 1.38 µM)	6.2 µg/mL (≈ 10.7 µM)	3.1 µg/mL (≈ 5.34 µM)	3.1 µg/mL (≈ 5.34 µM)	1.6 µg/mL (≈ 2.76 µM)	6.2 µg/mL (≈ 10.7 µM)	–
NC[C@H]1O[C@H](O[C@H]2[C@H](O)[C@@H](O[C@H]3O[C@H](CO)[C@@H](O)[C@H](N)[C@H]3O)[C@H](NC(=O)C(O)C3CNC3)C[C@@H]2N)[C@H](N)C[C@@H]1O (stereo partly shown) [(3), 1-N-[2-hydroxy-2-(azetidin-3-yl)acetyl]tobramycin]	–	–	–	0.1 µg/mL (≈ 0.172 µM)	–	–	–	6.2 µg/mL (≈ 10.7 µM)	50 µg/mL (≈ 86.1 µM)	–	–	–	–	0.4 µg/mL (≈ 0.689 µM)	0.4 µg/mL (≈ 0.689 µM)	0.4 µg/mL (≈ 0.689 µM)	0.8 µg/mL (≈ 1.38 µM)	0.4 µg/mL (≈ 0.689 µM)	0.4 µg/mL (≈ 0.689 µM)	1.6 µg/mL (≈ 2.76 µM)	MIC [10, 18]: 1.6 µg/mL (≈ 2.76 µM)
NC[C@H]1O[C@H](O[C@H]2[C@H](O)[C@@H](O[C@H]3O[C@H](CO)[C@@H](O)[C@H](N)[C@H]3O)[C@H](NC(=O)C(O)C3CCCNC3)C[C@@H]2N)[C@H](N)C[C@@H]1O (stereo partly shown) [(4), 1-N-[2-hydroxy-2-(piperidin-3-yl)acetyl]tobramycin]	–	–	–	0.1 µg/mL (≈ 0.164 µM)	–	–	–	25 µg/mL (≈ 41.1 µM)	> 100 µg/mL	25 µg/mL (≈ 41.1 µM)	–	–	–	12.5 µg/mL (≈ 20.5 µM)	1.6 µg/mL (≈ 2.63 µM)	1.6 µg/mL (≈ 2.63 µM)	3.1 µg/mL (≈ 5.09 µM)	1.6 µg/mL (≈ 2.63 µM)	1.6 µg/mL (≈ 2.63 µM)	> 100 µg/mL	–
NC[C@H]1O[C@H](O[C@H]2[C@H](O)[C@@H](O[C@H]3O[C@H](CO)[C@@H](O)[C@H](N)[C@H]3O)[C@H](NC(=O)C(O)C3CCCN3)C[C@@H]2N)[C@H](N)C[C@@H]1O (stereo partly shown) [(5), 1-N-[2-hydroxy-2-(pyrrolidin-2-yl)acetyl]tobramycin]	6.2 µg/mL	3.1 µg/mL	–	–	6.2 µg/mL	6.2 µg/mL	6.2 µg/mL	–	> 100 µg/mL	25 µg/mL (≈ 42 µM)	25.0 µg/mL	0.1 µg/mL	100 µg/mL (≈ 168 µM)	–	–	–	–	–	–	–	MIC [3, 19]: 12.5 µg/mL (≈ 21 µM)
NC[C@H]1O[C@H](O[C@H]2[C@H](O)[C@@H](O[C@H]3O[C@H](CO)[C@@H](O)[C@H](N)[C@H]3O)[C@H](NC(=O)C(O)C3CCCN3)C[C@@H]2N)[C@H](N)C[C@@H]1O (stereo partly shown) [(6), 1-N-[2-hydroxy-2-(pyrrolidin-2-yl)acetyl]tobramycin]	1.6 µg/mL	0.2 µg/mL	0.8 µg/mL	–	0.8 µg/mL	0.8 µg/mL	0.8 µg/mL	25 µg/mL (≈ 42 µM)	–	–	3.1 µg/mL	0.1 µg/mL	–	–	–	–	–	–	–	–	Minimum Inhibitory Concentration (MIC) [9]: > 100.0 µg/mL; MIC [10, 18]: 6.2 µg/mL (≈ 10.4 µM)
NC[C@H]1O[C@H](O[C@H]2[C@H](O)[C@@H](O[C@H]3O[C@H](CO)[C@@H](O)[C@H](N)[C@H]3O)[C@H](NC(=O)C(O)C3CCCN3)C[C@@H]2N)[C@H](N)C[C@@H]1O (stereo partly shown) [(7), 1-N-[2-hydroxy-2-(pyrrolidin-2-yl)acetyl]tobramycin]	–	6.2 µg/mL	50.0 µg/mL	–	12.5 µg/mL	25.0 µg/mL	–	–	–	–	100.0 µg/mL	0.4 µg/mL	–	–	–	–	–	–	–	–	MIC ([1]; PS24, read-out: Minimum Inhibitory Concentration (MIC)): 12.5 µg/mL (≈ 21 µM); MIC [7, 20]: 12.5 µg/mL (≈ 21 µM); Minimum Inhibitory Concentration (MIC) ([8]; Serratia marcescens ATCC 13880): > 100.0 µg/mL; Minimum Inhibitory Concentration (MIC) [9]: > 100.0 µg/mL; Minimum Inhibitory Concentration (MIC) [10]: 50.0 µg/mL
NC[C@H]1O[C@H](O[C@H]2[C@H](O)[C@@H](O[C@H]3O[C@H](CO)[C@@H](O)[C@H](N)[C@H]3O)[C@H](N)C[C@@H]2N)[C@H](N)C[C@@H]1O [TOB, tobramycin, reference compound]	–	–	–	0.05 µg/mL (≈ 0.107 µM)	–	–	–	–	–	50 µg/mL (≈ 107 µM)	–	–	3.13 µg/mL (≈ 6.69 µM)	0.39 µg/mL (≈ 0.834 µM)	0.39 µg/mL (≈ 0.834 µM)	–	–	–	–	–	MIC [3, 19]: 0.78 µg/mL (≈ 1.67 µM); MIC [7, 20]: 3.13 µg/mL (≈ 6.69 µM)
